This note sets out measurements from US8431581B2, “Imidazopyrimidines and uses thereof” (priority 2008, dated 2013).

The first test relates to HIV-1 reporter virus, integrase Q148H/G140S (QHGS). The test is described as follows: Luciferase reporter virus infectivity assay, QHGS mutant. In kind it is cell-based. To be noted: 293T cells, Q148H/G140S reporter virus, Table 3; read-out: EC50 against the QHGS mutant. The text has this:
Infectivity assays using reporter viruses derived from lentiviral vectors capable of a single round of infection were used to determine the activity (EC50) of compounds. The DNA used to generate viruses for infection was the full-length HIV-1 genome which had been envelope-deleted. In addition, a reporter gene (the firefly luciferase gene from Photinus pyralis) was cloned into the nef region of the HIV backbone for ease of assay readout. […]. Culture supernatants containing VSV-G pseudotyped virions were harvested 64 h post transfection, clarified by centrifugation to remove cell debris, and frozen at −70° C. until use.
HIV integrase was mutated within a shuttle vector (pGEM) containing the majority of the HIV-1 gag and pol sequence using site-directed mutagenesis to generate sequences that are known to confer resistance to published integrase inhibitors. These include but are not limited to mutations such as Q148H/G140S (in tables 2 and 3 # QHGS), N155H/E92Q (in table 2 # NHEQ), F121Y/T124K (in table 2 FYTK), Y143R (in table 2 # Y143R) and the triple mutant Q148K/G140A/E138A. (in table 2 # QKGAEA). The mutated integrase coding region within the shuttle vector was sequence verified, and then exchanged for the wild-type (WT) coding sequence in the reporter virus DNA backbone.
293T cells were plated out at 12000 cells per well in CellView 96-well cell culture plates (Invitrogen) 16 h prior to compound addition. Compounds were preincubated with cells for 4 h at 37° C. prior to the addition of virus sufficient to generate approximately 10000 Luciferase light units (as measured by the Victor Wallace luminometer) upon assaying using the Bright-Glo™ reagent (Promega) according to the manufacturer's instructions at 48 h post infection.
As to “6-Benzyloxy-1-[2-(2,6-dimethyl-morpholin-4-yl)-2-oxo-ethyl]-7-[5-(4-fluoro-2-methylsulfanyl-benzyl)-thiazol-2-yl]-1H-imidazo[1,2-a]pyrimidin-5-one [Example 168]”, the 50% effective concentration (EC50) was in the range of 0.5 to 1 µM.

Still in this test, the particulars now being: Human immunodeficiency virus 1, HEK-293T, read-out: EC50 against the QHGS mutant.
Turning to `COC(=O)c1cc(F)ccc1Cc1cnc(-c2nc3n(CC(=O)N4C[C@H](C)O[C@@H](C)C4)ccn3c(=O)c2O)s1` (stereo in doubt) [Example 58, 2-(2-{1-[2-(2,6-Dimethyl-morpholin-4-yl)-2-oxo-ethyl]-6-hydroxy-5-oxo-1,5-dihydro-imidazo[1,2-a]pyrimidin-7-yl}-thiazol-5-ylmethyl)-5-fluoro-benzoic acid methyl ester], the EC50 is 0.5 to 1 µM.

On to `C[C@H]1CN(C(=O)Cn2ccn3c(=O)c(O)c(-c4ncc(Cc5ccc(F)cc5S(=O)(=O)N(C)C)s4)nc23)C[C@H](C)O1` (stereo in doubt) [Example 104, 2-(2-{1-[2-(2,6-Dimethyl-morpholin-4-yl)-2-oxo-ethyl]-6-hydroxy-5-oxo-1,5-dihydro-imidazo[1,2-a]pyrimidin-7-yl}-thiazol-5-ylmethyl)-5-fluoro-N,N-dimethyl-benzenesulfonamide], for which the EC50 is less than 0.5 µM.

Regarding `C[C@@H]1CN(C(=O)Cn2ccn3c(=O)c(O)c(-c4ncc(Cc5ccc(F)cc5S(C)(=O)=O)s4)nc23)C[C@@H](C)O1` (stereo in doubt) [Example 138, 1-[2-(2,6-Dimethyl-morpholin-4-yl)-2-oxo-ethyl]-7-[5-(4-fluoro-2-methanesulfonyl-benzyl)-thiazol-2-yl]-6-hydroxy-1H-imidazo[1,2-a]pyrimidin-5-one], the EC50 was in the range of 0.5 to 1 µM.

Regarding `C[C@@H]1C[C@@H](C)CN(C(=O)Cn2ccn3c(=O)c(O)c(-c4ncc(Cc5ccc(F)cc5)s4)nc23)C1` (stereo in doubt) [Example 180, 1-[2-(3,5-Dimethyl-piperidin-1-yl)-2-oxo-ethyl]-7-[5-(4-fluoro-benzyl)-thiazol-2-yl]-6-hydroxy-1H-imidazo[1,2-a]pyrimidin-5-one], the EC50 is 0.5 to 1 µM.

As to `C[C@H]1CN(C(=O)Cn2cc(N3CCCS3(=O)=O)n3c(=O)c(O)c(-c4ncc(Cc5ccc(F)cc5)s4)nc23)C[C@H](C)O1` [Example 75, 1-[2-(2,6-Dimethyl-morpholin-4-yl)-2-oxo-ethyl]-3-(1,1-dioxo-1l6-isothiazolidin-2-yl)-7-[5-(4-fluoro-benzyl)-thiazol-2-yl]-6-hydroxy-1H-imidazo[1,2-a]pyrimidin-5-one], the EC50 was in the range of 0.5 to 1 µM.

Take `CC1CCCCN1C(=O)Cn1ccn2c(=O)c(O)c(-c3ncc(Cc4ccc(F)cc4)s3)nc12` (stereo not shown) [Example 126, 7-(5-(4-fluorobenzyl)thiazol-2-yl)-6-hydroxy-1-(2-(2-methylpiperidin-1-yl)-2-oxoethyl)imidazo[1,2-a]pyrimidin-5(1H)-one]: the EC50 is 0.5 to 1 µM.

For `CC1CCN(C(=O)Cn2ccn3c(=O)c(O)c(-c4ncc(Cc5ccc(F)cc5)s4)nc23)CC1` [Example 157, 7-[5-(4-Fluoro-benzyl)-thiazol-2-yl]-6-hydroxy-1-[2-(4-methyl-piperidin-1-yl)-2-oxo-ethyl]-1H-imidazo[1,2-a]pyrimidin-5-one], the EC50 lay in the range of 0.5 to 1 µM.

`O=C(NCc1ccc(Cl)c(Cl)c1)c1nc2n(CC(=O)N3CCCCC3)cc(CN3CCOCC3)n2c(=O)c1O` [Example 181, 6-Hydroxy-3-morpholin-4-ylmethyl-5-oxo-1-(2-oxo-2-piperidin-1-yl-ethyl)-1,5-dihydro-imidazo[1,2-a]pyrimidine-7-carboxylic acid 3,4-dichloro-benzylamide]: the EC50 is 0.5 to 1 µM.

With `C[C@H]1CN(C(=O)Cn2ccn3c(=O)c(O)c(-c4ncc(Cc5ccc(F)cc5)s4)nc23)C[C@H](C)O1` [Example 182, 1-[2-((2S,6S)-2,6-Dimethyl-morpholin-4-yl)-2-oxo-ethyl]-7-[5-(4-fluoro-benzyl)-thiazol-2-yl]-6-hydroxy-1H-imidazo[1,2-a]pyrimidin-5-one], the EC50 was less than 0.5 µM.
